One compound from patent US11806342B2, “Diiodohydroxyquinoline for the treatment of clostridium difficile infection” (Purdue Research Foundation, priority 2019, dated 2023) can be followed below.

Each structure is given as a SMILES string. Values after ≈ are worked out from the molar mass of the structure shown.

For orientation: MIC90 means the lowest concentration that inhibits either 90% of growth or 90% of the strains tested, depending on the study. A word on the MIC: it is the smallest concentration in the dilution series that meets the test's criterion for growth inhibition.

The subject of test [1] is 38 tested C. difficile strains. Put plainly: MIC and MBC over the panel of clinical isolates (MIC50, MIC90, range). The format is cell-based, Clostridium difficile. The protocol:
MIC50 and MIC90 are the minimum concentration of each agent that inhibited growth of 50% and 90% of the tested isolates, respectively. The minimum bactericidal concentration (MBC) of these drugs was tested by plating 5 μL from wells with no growth onto BHIS agar plates. The MBC was categorized as the lowest concentration that reduced bacterial growth by 99.9% MIC50 and MIC90 are the minimum concentration of each agent that inhibited the growth of 50% and 90% of the tested isolates, respectively. The minimum bactericidal concentration (MBC) of these drugs was tested by plating 5 μL from wells with no growth onto BHIS agar plates. The MBC was categorized as the lowest concentration that reduced bacterial growth by 99.9% [29-31].

Test [2] deals with C. difficile NR-49277. Briefly: Time kill kinetics assay. The format is cell-based, Clostridium difficile. The following applies: C. difficile NR-49277, 5×MIC, 37° C. As for the experimental part: Time kill kinetics assay. In order to examine the killing kinetics of DIHQ, a time kill kinetics assay was performed against Clostridium difficile ATCC BAA 1870 and C. difficile NR-49277 as described previously. […] Aliquots were collected from each treatment after 0, 4, 6, 8, 12, and 24 hours of incubation at 37° C. and subsequently serially diluted and plated for viable CFU/mL determination.

The next test concerns C. difficile ATCC 43255. Briefly: Spore inhibition assay. The format is cell-based, Clostridium difficile. As to conditions: C. difficile ATCC 43255, ½×MIC or 1×MIC, five days. As for the experimental part: (§1) The spore inhibition assay was performed as described in previous reports to investigate the effect of diiodohydroxyquinoline on C. difficile spore formation. Briefly, […], the bacterial suspension was split into microcentrifuge tubes and drugs were added (in triplicates) at concentrations equal to ½×MIC or 1×MIC. Tubes were then, incubated anaerobically for five days at 37° C. Thereafter, an aliquot from each tube was diluted and plated on BHIS agar plates supplemented with 0.1% taurocholic acid, to count the total bacterial counts (vegetative bacteria+spores). The remaining solution was centrifuged, and the pellet was suspended in PBS, stored overnight at 4° C., and subsequently shock-heated at 70° C. for 30 minutes to kill the vegetative cells. The resulting solution was serially diluted and plated to determine the heat-resistant spore counts. Spore inhibition assay was performed as described in previous reports to investigate the effect of DIHQ on C. difficile spore formation. Briefly, log-phase cultures of C. difficile strains (ATCC BAA-1870, ATCC 43255, and NR-49277) were diluted in BHIS to an initial density of ˜10^6 CFU/mL. Afterwards, the bacterial suspension was split in small tubes and the drugs were added (in triplicates) at concentrations equal to ½×MIC or 1×MIC. Tubes were then incubated anaerobically for 5 days at 37° C. After that, an aliquot from each tube was diluted and plated on BHIS agar plates supplemented with 0.1% taurocholic acid, to count the total bacterial count (vegetative bacteria+spores). The remaining solution was centrifuged, and the pellet was suspended in PBS and stored overnight at 4° C. then shock heated at 70° C. for 30 minutes to kill the vegetative cells. The resulting solution was serially diluted and plated to determine the heat-resistant spore counts.

Test [3] has as its system C. difficile ATCC BAA-1870. Put plainly: Spore inhibition assay. The format is cell-based, Clostridium difficile. As to conditions: C. difficile ATCC BAA-1870, ½×MIC or 1×MIC, five days. As for the experimental part:
as §1

For test [4], the system named is C. difficile NR-49277. Briefly: Spore inhibition assay. The format is cell-based, Clostridium difficile. As to conditions: C. difficile NR-49277, ½×MIC or 1×MIC, five days. As for the experimental part:
as §1

The next test relates to Bacteroides dorei HM-29. Put plainly: MIC against normal gut microflora, broth microdilution. Format: cell-based. The following applies: Phocaeicola dorei, HM29; Bacteroides dorei HM-29; read-out: MIC. As for the experimental part: (§2) In vitro antimicrobial evaluation of diiodohydroxyquinoline against normal microflora. The broth microdilution assay was utilized to determine the MICs of DIHQ and control antibiotics against commensal organisms that compose he human gut microflora, as described elsewhere. A bacterial solution equivalent to 0.5 McFarland standard was prepared and diluted in BHIS broth (for Bifidobacterium and Bacteroides) or in MRS broth (for Lactobacillus) to achieve a bacterial concentration of about 5×10^5 CFU/mL. Then, drugs were added and serially diluted along the plates.
A general note: In broth dilution the organism is exposed to a series of concentrations in liquid medium.

Another test deals with Bacteroides dorei HM-717. Described as above. The format is cell-based. As to conditions: Phocaeicola dorei, HM717; Bacteroides dorei HM-717; read-out: MIC. As for the experimental part:
as §2

The test system of a further test is Bacteroides dorei HM-718. The test is described as above. The format is cell-based. The following applies: Phocaeicola dorei, HM718; Bacteroides dorei HM-718; read-out: MIC. As for the experimental part:
as §2

A further test relates to Bacteroides dorei HM-719. Described as above. Format: cell-based. The following applies: Phocaeicola dorei, HM719; Bacteroides dorei HM-719; read-out: MIC. The protocol:
as §2

Test [5] concerns Bacteroides fragilis HM-709. The test is described as above. Format: cell-based. The following applies: HM709; Bacteroides fragilis HM-709; read-out: MIC. The protocol: as §2
In test [6] the test system is Bacteroides fragilis HM-710. The test is described as above. Format: cell-based. The following applies: HM710; Bacteroides fragilis HM-710; read-out: MIC. The protocol: as §2
Test [7] deals with Bacteroides fragilis HM-711. The description is as above. Format: cell-based. As to conditions: HM711; Bacteroides fragilis HM-711; read-out: MIC. The protocol: as §2
Test [8] concerns Bacteroides fragilis HM-714. The test is described as above. Format: cell-based. As to conditions: HM714; Bacteroides fragilis HM-714; read-out: MIC. As for the experimental part:
as §2

For test [9], the system named is Bifidobacterium adolescentis HM-633. The test is described as above. As to conditions: HM633; Bifidobacterium adolescentis HM-633; read-out: MIC. Format: cell-based. The protocol: as §2
In test [10] the test system is Bifidobacterium angulatum HM-1189. Described as above. Format: cell-based. The following applies: HM1189; Bifidobacterium angulatum HM-1189; read-out: MIC. The protocol:
as §2

Test [11] has as its system Bifidobacterium breve HM-1120. Described as above. The format is cell-based. As to conditions: HM1120; Bifidobacterium breve HM-1120; read-out: MIC. The protocol: as §2
The subject of test [12] is Bifidobacterium breve HM-411. Described as above. Format: cell-based. The following applies: HM411; Bifidobacterium breve HM-411; read-out: MIC. The protocol: as §2
In test [13] the test system is Bifidobacterium longum HM-845. The description is as above. Format: cell-based. As to conditions: HM845; Bifidobacterium longum HM-845; read-out: MIC. As for the experimental part:
as §2

The subject of test [14] is Bifidobacterium longum HM-847. The description is as above. The format is cell-based. As to conditions: HM847; Bifidobacterium longum HM-847; read-out: MIC. The protocol: as §2
For test [15], the system named is Lactobacillus casei ATCC 334. The description is as above. Format: cell-based. The following applies: Lacticaseibacillus casei, ATCC334; Lactobacillus casei ATCC 334; read-out: MIC. The protocol:
as §2

The subject of test [16] is Lactobacillus crispatus HM-371. Described as above. The format is cell-based. As to conditions: HM371; Lactobacillus crispatus HM-371; read-out: MIC. The protocol: as §2
In test [17] the test system is Lactobacillus reuteri HM-102. The description is as above. The format is cell-based. The following applies: Limosilactobacillus reuteri, HM102; Lactobacillus reuteri HM-102; read-out: MIC. As for the experimental part:
as §2

Regarding `Cc1ncc([N+](=O)[O-])n1CCO` [Metronidazole, metronidazole], in test [1] (Clostridioides difficile, concentration inhibiting growth of 90% of the tested isolates, read-out: MIC90), the MIC90 is 0.25 µg/mL (≈ 1.46 µM). This compound also gave an MIC range in test [1] (over the 38 tested C. difficile strains) of 0.06 to 0.5 µg/mL. The “time required to generate a 3-log10 reduction in CFU/mL” value with C. difficile NR-49277 [2] stood at 12 hours. Moreover, the “reduction in spore count (in words)” value (with C. difficile ATCC 43255; in [3]; in the test on C. difficile NR-49277 [4]) was “almost no reduction” in each case. In addition, the minimum inhibitory concentration (MIC) was at most 1 µg/mL with Bacteroides dorei HM-29; at most 1 µg/mL in the test with Bacteroides dorei HM-717; at most 1 µg/mL with Bacteroides dorei HM-718; at most 1 µg/mL in the test on Bacteroides dorei HM-719; 2 µg/mL (≈ 11.7 µM) in test [5]; 2 µg/mL (≈ 11.7 µM) in test [6]. Moreover, the MIC in [7] was at most 1 µg/mL; in test [8], at most 1 µg/mL; in test [9], at most 1 µg/mL; in test [10], at most 1 µg/mL; in [11], at most 1 µg/mL; in test [12], 2 µg/mL (≈ 11.7 µM). The MIC was at most 1 µg/mL in [13]; at most 1 µg/mL in [14]; 16 µg/mL (≈ 93.5 µM) in test [15]; above 128 µg/mL in [16]; above 128 µg/mL in test [17].
